The test system of the assay is IRF3. As to the kind of experiment: IRF3 activation assay in THP-1 Dual Cells (QUANTI-Blue reporter). Type of assay: cell-based. To be noted: Homo sapiens, THP1-Dual, 24 hours incubation, absorbance at 620-655 nm. As for the experimental part: THP-1 Dual Cells (Invivogen) were maintained in RPMI1640 medium with addition of 10% FBS, 100 μg/mL zeocin, 10 μg/mL blasticidin. Cells were added in a 96-well flat bottom assay plate at 100,000 per well in 100 μL complete RPMI medium. Test compounds were prepared by serial dilution in complete RPMI medium and 100 μL test compounds were transferred to each corresponding well. The assay plate was incubated at 37° C., 5% CO2 for 24 hours. After the overnight incubation, 20 μL of the culture supernatants were collected, followed by addition of 180 μL of QUANTI-Blue (Invivogen) to assess IRF3 activity. The amount of IRF3 activation was assessed by reading the absorbance at 620-655 nm with a microplate reader 2 hours later. The culture supernatant from the untreated THP-1 cells was used as the negative control. To determine the NF-κB activation, another 20 μL of culture supernatant were transferred to a 96-well white plate, followed by addition of 50 μL of Quanti-Luc™ assay solution (Invivogen). The amount of NF-κB activation induced by the test compounds were determined by the luminescence above the untreated control. EC50 determination was performed by fitting the curve of percent control activity versus the log of the compound concentration using the GraphPad Prism 6.0 software.

We go through 2 molecules from patent US11008344B2, “Tricyclic heteroaryl compounds as STING activators” (Incyte Corporation, priority 2018, dated 2021).

The EC50 is the midpoint of the concentration-response curve. Higher therefore signals weaker potency. With `CCn1nc(C)cc1-c1ncc2c3cc(C(N)=O)cc(OC)c3n(C/C=C/Cn3c4nc(-c5cc(C)nn5CC)ncc4c4cc(C(N)=O)cc(OC)c43)c2n1` [Example 1, (E)-9,9′-(but-2-ene-1,4-diyl)bis(2-(1-ethyl-3-methyl-1H-pyrazol-5-yl)-8-methoxy-9H-pyrimido[4,5-b]indole-6-carboxamide)], the EC50 was at most 100 nM.
Take `CCn1nc(C)cc1-c1ncc2c3cc(C(N)=O)cc(OCCCO)c3n(C/C=C/Cn3c4nc(-c5cc(C)nn5CC)ncc4c4cc(C(N)=O)cc(OCCCO)c43)c2n1` [Example 2, (E)-9,9′-(but-2-ene-1,4-diyl)bis(2-(1-ethyl-3-methyl-1H-pyrazol-5-yl)-8-(3-hydroxypropoxy)-9H-pyrimido[4,5-b]indole-6-carboxamide)]: the EC50 is at most 100 nM.
